PubChem BioAssay AID1963434 (Molecular Pharmacology Branch, DTP, NCI, 2024)
One block for each compound: values may come before it.

Test system: 755483-174-R-J1-PDC complex spheroid growth, percent test/control
Assay: Anticancer human tumor 755483-174-R-J1-PDC patient-derived rhabdomyosarcoma cell line growth inhibition [Asc]
Details: for IC50: curve of first compound; for viability, T/C: stronger effect = lower value
Method in brief: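 Complex spheroids combining tumor cells with HUVEC endothelial cells and human MSCs, at 37 degrees C, 5% CO2; agents tested alone or combined, half-log dilutions from at or near clinical Cmax, or 10 microM if Cmax unknown.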

[1] = second compound 0.01 µM, first compound 0.00316 µM
[2] = second compound 0.01 µM, first compound 0.01 µM
[3] = second compound 0.01 µM, first compound 0.0316 µM
[4] = second compound 0.01 µM, first compound 0.1 µM
[5] = second compound 0.0316 µM, first compound 0.00316 µM
[6] = second compound 0.0316 µM, first compound 0.01 µM
[7] = second compound 0.0316 µM, first compound 0.0316 µM
[8] = second compound 0.0316 µM, first compound 0.1 µM
[9] = second compound 0.1 µM, first compound 0.00316 µM
[10] = second compound 0.1 µM, first compound 0.01 µM
[11] = second compound 0.1 µM, first compound 0.0316 µM
[12] = second compound 0.1 µM, first compound 0.1 µM
[13] = second compound 0.316 µM, first compound 0.00316 µM
[14] = second compound 0.316 µM, first compound 0.01 µM
[15] = second compound 0.316 µM, first compound 0.0316 µM
[16] = second compound 0.316 µM, first compound 0.1 µM
[17] = second compound 1 µM, first compound 0.00316 µM
[18] = second compound 1 µM, first compound 0.01 µM
[19] = second compound 1 µM, first compound 0.0316 µM
[20] = second compound 1 µM, first compound 0.1 µM
[21] = second compound 0.01 µM, first compound 0.316 µM
[22] = second compound 0.01 µM, first compound 1 µM
[23] = second compound 0.0316 µM, first compound 0.316 µM
[24] = second compound 0.0316 µM, first compound 1 µM
[25] = second compound 0.1 µM, first compound 0.316 µM
[26] = second compound 0.1 µM, first compound 1 µM
[27] = second compound 0.316 µM, first compound 0.316 µM
[28] = second compound 0.316 µM, first compound 1 µM
[29] = second compound 1 µM, first compound 0.316 µM
[30] = second compound 1 µM, first compound 1 µM
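Further: spheroids exposed to compounds for seven days before readout.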

IC50 (second compound 0.03 µM): 442 nM | IC50 (second compound 0.0949 µM): 371 nM | IC50 (second compound 0.3 µM): 387 nM | IC50 (second compound 0.949 µM): 232 nM | IC50 (second compound 3 µM): 315 nM
Structure (SMILES): Cc1nc(N2CCC3(CC2)COC(C)C3N)c(CO)nc1Sc1ccnc(N)c1Cl (stereo not given) + CCN1C(C(=O)NC23CCC(C(=O)O)(CC2)CC3)C(c2cccc(Cl)c2F)C2(C(=O)Nc3cc(Cl)ccc32)C12CCCCC2
viability, T/C (second compound 0.03 µM, first compound 0.00949 µM): 111% | viability, T/C (second compound 0.03 µM, first compound 0.03 µM): 93.4% | viability, T/C (second compound 0.03 µM, first compound 0.0949 µM): 80.7% | viability, T/C (second compound 0.03 µM, first compound 0.3 µM): 58.6% | viability, T/C (second compound 0.03 µM, first compound 0.949 µM): 33.4% | viability, T/C (second compound 0.03 µM, first compound 3 µM): 19.6% | viability, T/C (second compound 0.0949 µM, first compound 0.00949 µM): 113% | viability, T/C (second compound 0.0949 µM, first compound 0.03 µM): 106% | viability, T/C (second compound 0.0949 µM, first compound 0.0949 µM): 106% | viability, T/C (second compound 0.0949 µM, first compound 0.3 µM): 52.9% | viability, T/C (second compound 0.0949 µM, first compound 0.949 µM): 39.2% | viability, T/C (second compound 0.0949 µM, first compound 3 µM): 21.1% | viability, T/C (second compound 0.3 µM, first compound 0.00949 µM): 89.5% | viability, T/C (second compound 0.3 µM, first compound 0.03 µM): 87.6% | viability, T/C (second compound 0.3 µM, first compound 0.0949 µM): 62.1% | viability, T/C (second compound 0.3 µM, first compound 0.3 µM): 51.6% | viability, T/C (second compound 0.3 µM, first compound 0.949 µM): 42.5% | viability, T/C (second compound 0.3 µM, first compound 3 µM): 18.5% | viability, T/C (second compound 0.949 µM, first compound 0.00949 µM): 105% | viability, T/C (second compound 0.949 µM, first compound 0.03 µM): 82.9% | viability, T/C (second compound 0.949 µM, first compound 0.0949 µM): 84.1% | viability, T/C (second compound 0.949 µM, first compound 0.3 µM): 40.1% | viability, T/C (second compound 0.949 µM, first compound 0.949 µM): 24.9% | viability, T/C (second compound 0.949 µM, first compound 3 µM): 27.1% | viability, T/C (second compound 3 µM, first compound 0.00949 µM): 111% | viability, T/C (second compound 3 µM, first compound 0.03 µM): 82.9% | viability, T/C (second compound 3 µM, first compound 0.0949 µM): 71.9% | viability, T/C (second compound 3 µM, first compound 0.3 µM): 50.1% | viability, T/C (second compound 3 µM, first compound 0.949 µM): 34.3% | viability, T/C (second compound 3 µM, first compound 3 µM): 21.1%

IC50 (second compound 0.01 µM): < 0.316 nM | IC50 (second compound 0.0316 µM): < 0.316 nM | IC50 (second compound 0.1 µM): < 0.316 nM | IC50 (second compound 0.316 µM): < 0.316 nM | IC50 (second compound 1 µM): < 0.316 nM
Structure (SMILES): Cn1ncnc1[C@H]1c2n[nH]c(=O)c3cc(F)cc(c23)N[C@@H]1c1ccc(F)cc1 + CNC(C)C(=O)NC1CN(S(=O)(=O)c2cccc(S(=O)(=O)N3CCC4CCC(C(=O)NC(c5ccccc5)c5ccccc5)N4C(=O)C(NC(=O)C(C)NC)C3)c2)CCC2CCC(C(=O)NC(c3ccccc3)c3ccccc3)N2C1=O
viability, T/C (second compound 0.01 µM, first compound 0.000316 µM): 39.3% | viability, T/C (second compound 0.01 µM, first compound 0.001 µM): 45.2% | viability, T/C [1]: 45.5% | viability, T/C [2]: 30.9% | viability, T/C [3]: 26.4% | viability, T/C [4]: 18.1% | viability, T/C (second compound 0.0316 µM, first compound 0.000316 µM): 36.2% | viability, T/C (second compound 0.0316 µM, first compound 0.001 µM): 42.9% | viability, T/C [5]: 33.4% | viability, T/C [6]: 16.2% | viability, T/C [7]: 18.1% | viability, T/C [8]: 12.7% | viability, T/C (second compound 0.1 µM, first compound 0.000316 µM): 26.2% | viability, T/C (second compound 0.1 µM, first compound 0.001 µM): 33.2% | viability, T/C [9]: 25.4% | viability, T/C [10]: 14.4% | viability, T/C [11]: 13.7% | viability, T/C [12]: 9.96% | viability, T/C (second compound 0.316 µM, first compound 0.000316 µM): 31.5% | viability, T/C (second compound 0.316 µM, first compound 0.001 µM): 23.6% | viability, T/C [13]: 17.2% | viability, T/C [14]: 14.7% | viability, T/C [15]: 6.84% | viability, T/C [16]: 9.04% | viability, T/C (second compound 1 µM, first compound 0.000316 µM): 13.7% | viability, T/C (second compound 1 µM, first compound 0.001 µM): 19.7% | viability, T/C [17]: 9.69% | viability, T/C [18]: 9.82% | viability, T/C [19]: 9.01% | viability, T/C [20]: 7.46%

IC50 (second compound 0.01 µM): < 31.6 nM | IC50 (second compound 0.0316 µM): < 31.6 nM | IC50 (second compound 0.1 µM): < 31.6 nM | IC50 (second compound 0.316 µM): < 31.6 nM | IC50 (second compound 1 µM): < 31.6 nM
Structure (SMILES): O=C(c1cc(Cc2n[nH]c(=O)c3ccccc23)ccc1F)N1CCN(C(=O)C2CC2)CC1 + CNC(C)C(=O)NC1CN(S(=O)(=O)c2cccc(S(=O)(=O)N3CCC4CCC(C(=O)NC(c5ccccc5)c5ccccc5)N4C(=O)C(NC(=O)C(C)NC)C3)c2)CCC2CCC(C(=O)NC(c3ccccc3)c3ccccc3)N2C1=O
viability, T/C [3]: 41.7% | viability, T/C [4]: 41.1% | viability, T/C [21]: 34.5% | viability, T/C [22]: 27.5% | viability, T/C (second compound 0.01 µM, first compound 3.16 µM): 24.1% | viability, T/C (second compound 0.01 µM, first compound 10 µM): 12% | viability, T/C [7]: 35.3% | viability, T/C [8]: 34.3% | viability, T/C [23]: 24.3% | viability, T/C [24]: 21.3% | viability, T/C (second compound 0.0316 µM, first compound 3.16 µM): 17.9% | viability, T/C (second compound 0.0316 µM, first compound 10 µM): 9.95% | viability, T/C [11]: 27.2% | viability, T/C [12]: 40.2% | viability, T/C [25]: 28.5% | viability, T/C [26]: 23.6% | viability, T/C (second compound 0.1 µM, first compound 3.16 µM): 15.5% | viability, T/C (second compound 0.1 µM, first compound 10 µM): 7.57% | viability, T/C [15]: 29.5% | viability, T/C [16]: 40.1% | viability, T/C [27]: 23.3% | viability, T/C [28]: 15.7% | viability, T/C (second compound 0.316 µM, first compound 3.16 µM): 8.99% | viability, T/C (second compound 0.316 µM, first compound 10 µM): 3.81% | viability, T/C [19]: 16.7% | viability, T/C [20]: 17.2% | viability, T/C [29]: 6.88% | viability, T/C [30]: 6.73% | viability, T/C (second compound 1 µM, first compound 3.16 µM): 8.78% | viability, T/C (second compound 1 µM, first compound 10 µM): 3.7%

IC50 (second compound 0.01 µM): 92.3 nM | IC50 (second compound 0.0316 µM): 27.7 nM | IC50 (second compound 0.1 µM): < 3.16 nM | IC50 (second compound 0.316 µM): < 3.16 nM | IC50 (second compound 1 µM): < 3.16 nM
Structure (SMILES): O=C(c1ccc(F)c(F)c1Nc1ccc(I)cc1F)N1CC(O)([C@@H]2CCCCN2)C1 + CNC(C)C(=O)NC1CN(S(=O)(=O)c2cccc(S(=O)(=O)N3CCC4CCC(C(=O)NC(c5ccccc5)c5ccccc5)N4C(=O)C(NC(=O)C(C)NC)C3)c2)CCC2CCC(C(=O)NC(c3ccccc3)c3ccccc3)N2C1=O
viability, T/C [1]: 49.5% | viability, T/C [2]: 56.7% | viability, T/C [3]: 51.5% | viability, T/C [4]: 49.9% | viability, T/C [21]: 29.4% | viability, T/C [22]: 23.4% | viability, T/C [5]: 56.5% | viability, T/C [6]: 62.9% | viability, T/C [7]: 36.2% | viability, T/C [8]: 47.8% | viability, T/C [23]: 41.7% | viability, T/C [24]: 25.1% | viability, T/C [9]: 38.5% | viability, T/C [10]: 44.7% | viability, T/C [11]: 38.6% | viability, T/C [12]: 40.3% | viability, T/C [25]: 23.1% | viability, T/C [26]: 8.23% | viability, T/C [13]: 35% | viability, T/C [14]: 25.6% | viability, T/C [15]: 56% | viability, T/C [16]: 31.4% | viability, T/C [27]: 20.5% | viability, T/C [28]: 11.3% | viability, T/C [17]: 23.6% | viability, T/C [18]: 24.4% | viability, T/C [19]: 25.8% | viability, T/C [20]: 30.4% | viability, T/C [29]: 17.1% | viability, T/C [30]: 4.97%
